Experiments:
Cbl-b = Cbl-b (Homo sapiens (Human), UniProt Q13191); assay: Cbl-b LCK Ub TR-FRET assay (Cbl-b Lck HTRF); type: biochemical
Outline: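 TR-FRET (340 nm excitation, 615/665 nm emission) read after adding HA-ubiquitin–UBE2D2 thioester, anti-HA-D2 and streptavidin-Eu. Beforehand, compounds incubated 60 min with biotinylated Cbl-b, then 90 min with His-LCK and ATP (1 mM in 2× mix); IC50 from 10 concentrations, DMSO high and no-LCK low controls.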

c-Cbl = c-Cbl (Homo sapiens (Human), UniProt P22681); assay: C-Cbl LCK Ub TR-FRET assay (c-cbl Lck HTRF); type: biochemical; details: for (fold-selectivity): C-cbl Lck HTRF IC50 relative to Cbl-b Lck HTRF IC50
c-Cbl, sequence (P22681 47-435): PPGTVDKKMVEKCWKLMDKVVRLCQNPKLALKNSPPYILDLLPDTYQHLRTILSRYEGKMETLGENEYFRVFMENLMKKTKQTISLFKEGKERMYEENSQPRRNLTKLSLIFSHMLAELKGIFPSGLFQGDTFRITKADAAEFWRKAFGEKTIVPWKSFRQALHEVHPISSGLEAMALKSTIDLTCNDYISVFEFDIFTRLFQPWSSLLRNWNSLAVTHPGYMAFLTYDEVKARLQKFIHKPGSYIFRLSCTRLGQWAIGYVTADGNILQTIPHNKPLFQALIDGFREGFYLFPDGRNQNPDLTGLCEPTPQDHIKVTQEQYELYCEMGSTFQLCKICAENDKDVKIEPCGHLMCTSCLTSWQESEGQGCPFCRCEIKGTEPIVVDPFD
Outline: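 Signal is read once the detection mix has stood 20 min at ambient temperature. Curves are anchored by DMSO as maximum and by omission of LCK as minimum.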

Cbl-b, sequence (Q13191 40-426): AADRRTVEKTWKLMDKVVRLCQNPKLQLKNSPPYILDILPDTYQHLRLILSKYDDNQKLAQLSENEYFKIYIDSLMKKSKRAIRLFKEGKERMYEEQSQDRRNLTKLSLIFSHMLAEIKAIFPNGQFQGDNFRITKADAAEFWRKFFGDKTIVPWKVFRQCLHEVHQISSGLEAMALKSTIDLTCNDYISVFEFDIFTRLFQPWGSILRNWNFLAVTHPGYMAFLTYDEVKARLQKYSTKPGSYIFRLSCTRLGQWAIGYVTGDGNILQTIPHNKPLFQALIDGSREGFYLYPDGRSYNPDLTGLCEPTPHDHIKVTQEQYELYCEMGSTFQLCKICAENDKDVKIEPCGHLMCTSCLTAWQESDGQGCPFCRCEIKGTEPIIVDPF

SMILES | IC50 (Cbl-b) [nM] | IC50 (c-Cbl) [nM] | (fold-selectivity) (c-Cbl)
Cn1cnnc1[C@@H](F)C1(c2cccc(N3Cc4c(cc(CN5CCC[C@H]5CO)cc4C(F)(F)F)C3=O)c2)COC1 [Compound 150, 2-(3-(3-((S)-fluoro(4-methyl-4H-1,2,4-triazol-3-yl)methyl)oxetan-3-yl)phenyl)-6-(((S)-2-(hydroxymethyl)pyrrolidin-1-yl)methyl)-4-(trifluoromethyl)isoindolin-1-one] | 1400 | 1500 | 1.1x
Cn1cnnc1CC1(c2cc(OC3CCCC3)nc(N3Cc4c(cccc4C(F)(F)F)C3=O)c2)COC1 [Compound 381, 2-(6-(cyclopentyloxy)-4-(3-((4-methyl-4H-1,2,4-triazol-3-yl)methyl)oxetan-3-yl)pyridin-2-yl)-4-(trifluoromethyl)isoindolin-1-one] | 1100 | 7300 | (5.9x)
CCn1cnnc1[C@@H](F)C1(c2cccc(N3Cc4c(cccc4C(F)(F)F)C3=O)c2)COC1 [Compound 271, (S)-2-(3-(3-((4-ethyl-4H-1,2,4-triazol-3-yl)fluoromethyl)oxetan-3-yl)phenyl)-4-(trifluoromethyl)isoindolin-1-one] | 1600 | 1900 | (1.2x)
Cn1cnnc1[C@H](F)C1(c2cccc(N3Cc4c(cc([C@H](N)C5CC5)cc4C(F)(F)F)C3=O)c2)COC1 [Compound 54, 6-((R)-amino(cyclopropyl)methyl)-2-(3-(3-((R)-fluoro(4-methyl-4H-1,2,4-triazol-3-yl)methyl)oxetan-3-yl)phenyl)-4-(trifluoromethyl)isoindolin-1-one] | 29 | 46 | 1.6x
Cn1cnnc1[C@@H](F)C1(c2cccc(N3Cc4c(cc(CN)cc4C(F)(F)F)C3=O)c2)CC(F)(F)C1.O=CO [Compound 394, (S)-6-(aminomethyl)-2-(3-(3,3-difluoro-1-(fluoro(4-methyl-4H-1,2,4-triazol-3-yl)methyl)cyclobutyl)phenyl)-4-(trifluoromethyl)isoindolin-1-one formate] | 120 | 160 | (1.3x)
Cn1cnnc1[C@H](F)C1(c2cccc(N3Cc4c(cc(CN5CCC(F)(CO)CC5)cc4C(F)(F)F)C3=O)c2)COC1 [Compound 133, (R)-2-(3-(3-(fluoro(4-methyl-4H-1,2,4-triazol-3-yl)methyl)oxetan-3-yl)phenyl)-6-((4-fluoro-4-(hydroxymethyl)piperidin-1-yl)methyl)-4-(trifluoromethyl)isoindolin-1-one] | 90 | 170 | 1.9x
Cn1cnnc1[C@H](F)C1(c2cccc(N3Cc4c(cc(CNC5(C)CCC5)cc4C(F)(F)F)C3=O)c2)COC1 [Compound 230, (R)-2-(3-(3-(fluoro(4-methyl-4H-1,2,4-triazol-3-yl)methyl)oxetan-3-yl)phenyl)-6-(((1-methylcyclobutyl)amino)methyl)-4-(trifluoromethyl)isoindolin-1-one] | 13 | 11 | (0.84x)
CC(C)Nc1cc(N2Cc3c(cc(CNC4(C)CCC4)cc3C(F)(F)F)C2=O)cc(C2(Cc3nncn3C)CCC2)c1 [Compound 462, 2-(3-(isopropylamino)-5-(1-((4-methyl-4H-1,2,4-triazol-3-yl)methyl)cyclobutyl)phenyl)-6-(((1-methylcyclobutyl)amino)methyl)-4-(trifluoromethyl)isoindolin-1-one] | 8.3 | 7.9 | (0.95x)
CC(C)[C@H]1CNCCN1Cc1cc2c(c(C(F)(F)F)c1)CN(c1cccc(C3([C@H](F)c4nncn4C)CCC3)c1)C2=O [Compound 217, 2-(3-(1-((S)-fluoro(4-methyl-4H-1,2,4-triazol-3-yl)methyl)cyclobutyl)phenyl)-6-(((S)-2-isopropylpiperazin-1-yl)methyl)-4-(trifluoromethyl)isoindolin-1-one] | 17 | 20 | 1.2x
CC(C)[C@H]1CN(C)CCN1Cc1cc2c(c(C(F)(F)F)c1)CN(c1cccc(C3(Cc4nncn4C)CC(F)(F)C3)c1)C2=O [Compound 240, (S)-2-(3-(3,3-difluoro-1-((4-methyl-4H-1,2,4-triazol-3-yl)methyl)-cyclobutyl)phenyl)-6-((2-isopropyl-4-methylpiperazin-1-yl)methyl)-4-(trifluoromethyl)iso-indolin-1-one] | 54 | 39 | (0.71x)
Cn1cnnc1[C@@H](F)C1(c2cccc(N3Cc4c(cc(Oc5cn[nH]c5)cc4C(F)(F)F)C3=O)c2)COC1 [Compound 117, (S)-6-((1H-pyrazol-4-yl)oxy)-2-(3-(3-(fluoro(4-methyl-4H-1,2,4-triazol-3-yl)methyl)oxetan-3-yl)phenyl)-4-(trifluoromethyl)isoindolin-1-one] | 540 | 750 | 1.4x
Cn1cnnc1[C@H](F)C1(c2cccc(N3Cc4c(I)cccc4C3=O)c2)COC1 [Compound 205, (R)-2-(3-(3-(fluoro(4-methyl-4H-1,2,4-triazol-3-yl)methyl)oxetan-3-yl)phenyl)-4-iodoisoindolin-1-one] | 290 | 770 | 2.7x
Cn1cnnc1[C@H](F)C1(c2cccc(N3Cc4c(cc(CNCCCF)cc4C(F)(F)F)C3=O)c2)COC1 [Compound 231, (R)-2-(3-(3-(fluoro(4-methyl-4H-1,2,4-triazol-3-yl)methyl)oxetan-3-yl)phenyl)-6-(((3-fluoropropyl)amino)methyl)-4-(trifluoromethyl)isoindolin-1-one] | 9.8 | 81 | (0.82x)
Cn1cnnc1CC1(c2cc(NCCC#N)nc(N3Cc4c(cc(CNC5(C)CCC5)cc4C(F)(F)F)C3=O)c2)CCC1 [Compound 308, 3-((4-(1-((4-methyl-4H-1,2,4-triazol-3-yl)methyl)cyclobutyl)-6-(6-(((1-methylcyclobutyl)amino)methyl)-1-oxo-4-(trifluoromethyl)isoindolin-2-yl)pyridin-2-yl)amino)propanenitrile] | 12 | 7.5 | (0.63x)
Cn1cnnc1[C@@H](F)C1(c2cccc(N3Cc4c(cc(CN5CCC(F)(CO)CC5)cc4C(F)(F)F)C3=O)c2)COC1 [Compound 134, (S)-2-(3-(3-(fluoro(4-methyl-4H-1,2,4-triazol-3-yl)methyl)oxetan-3-yl)phenyl)-6-((4-fluoro-4-(hydroxymethyl)piperidin-1-yl)methyl)-4-(trifluoromethyl)isoindolin-1-one] | 210 | 670 | 3.3x
Cc1cnnn1CC1(c2cccc(N3Cc4c(cc(CN5CCN(C)C[C@@H]5C(C)C)cc4C(F)(F)F)C3=O)c2)COC1 [Compound 222, (S)-6-((2-Isopropyl-4-methylpiperazin-1-yl)methyl)-2-(3-(3-((5-methyl-1H-1,2,3-triazol-1-yl)methyl)oxetan-3-yl)phenyl)-4-(trifluoromethyl)isoindolin-1-one] | 22 | 26 | 1.2x

— US20250230147A1, “LACTAMS AS CBL-B INHIBITORS” (Genentech, Inc., priority 2021, published 2025)
